Consider four molecules from patent US10555987B2, “GHRH agonists for the treatment of ischemic disorders” (UNIVERSITY OF MIAMI, priority 2012, dated 2020).

Assay [1] relates to GH release. The experiment in a line: GH releasing potency in vivo, intravenous administration (Example 14, Table 13). Also on record: species or system rat. Conditions: i.v. Here is the method:
Male Sprague-Dawley rats, weighing 200-250 g, were purchased from Charles River Laboratory (Wilmington, Mass.) and used for experiments. All animal procedures were approved by the Veterans Affairs Animal Care and Use Committee and were conducted in accordance with additional institutional guidelines as well. Briefly, groups of 5-6 animals were used in each experiment. The rats were anesthetized with 50 mg/kg of sodium pentobarbital (Nembutal, Lundbeck Inc., Deerfield, Ill.). Twenty min after inducing anesthesia, GHRH(1-29)NH2, JI-38, or new analogs were injected into the animals intravenously (i.v.) or subcutaneously (s.c.). The peptides were dissolved in 0.01 M acetic acid to get 1 μg/μl stock solution, and then diluted with 5% mannitol. Control rats received 5% mannitol only. Blood samples were collected from the jugular vein at selected times and were used for serum preparation. Concentrations of GH in rat sera were determined by ELISA. The relative potencies of tested peptides were calculated using GHRH(1-29)NH2 and JI-38 for comparison, whose potency was defined as 1. The equivalent dosage of GHRH(1-29)NH2 to reach the same level of serum growth hormone release after injection of the specific tested peptide was determined from a GHRH(1-29)NH2 standard curve using Origin 6.0 software. […] Serum GH was determined using the rat Growth Hormone ELISA kit (ALPCO Diagnostics, Mill Valley, Calif.) according to the manufacturer's instruction. Absorbance at 405 nm was measured by a Victor 3 Multi-label Counter (Perkin-Elmer, Waltham, Md.).

Assay [2] has as its system myocardial infarction (Fisher-344 rats). The experiment in a line: Serial echocardiography after MI, compared to JI-38 (Example 15, Table 15). In kind it is in vivo, rat. More on the design: key to LVEDD: Left Ventricular End Diastolic Diameter / LVESD: Left Ventricular End Systolic Diameter / VD: Ventricular Diastole / VS: Ventricular Systole / EF: Ejection Fraction / FS: Fraction Shortening: ↓: downward arrow denotes lower than JI-38; ↑: upward arrow denotes greater than JI-38; =denotes same as JI-38; ⬇⬇: double arrow denotes greater effect; ⬆⬆: double arrow denotes greater effect. The conditions noted are these: in comparison to JI-38. A digest of the protocol: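 Female 6-month-old Fisher-344 rats with permanent left coronary artery ligation received placebo, JI-38 or GHRH agonists subcutaneously twice daily from 2 h post-surgery (10 per group). Under 2% isoflurane, M-mode LVEDD, LVESD and FS plus long-axis EF were measured at baseline, 2 days, 1, 2 and 4 weeks.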

The target in assay [3] is T1, GHRH receptor (Homo sapiens, UniProt Q02643).
T1 sequence (Q02643 23-423): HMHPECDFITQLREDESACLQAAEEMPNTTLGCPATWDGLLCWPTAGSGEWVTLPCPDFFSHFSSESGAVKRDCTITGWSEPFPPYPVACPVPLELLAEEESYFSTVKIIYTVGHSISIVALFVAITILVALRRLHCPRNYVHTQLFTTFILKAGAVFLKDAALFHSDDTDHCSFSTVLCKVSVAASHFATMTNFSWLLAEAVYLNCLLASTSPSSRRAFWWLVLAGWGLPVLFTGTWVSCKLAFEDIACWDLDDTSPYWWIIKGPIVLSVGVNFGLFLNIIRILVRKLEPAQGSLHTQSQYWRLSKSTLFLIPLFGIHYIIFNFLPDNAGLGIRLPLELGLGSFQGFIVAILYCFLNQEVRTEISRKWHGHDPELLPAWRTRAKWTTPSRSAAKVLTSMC
The experiment in a line: Receptor binding in vitro, 125I-labeled [His1,Nle27]-hGHRH(1-32)NH2, membrane receptors of human anterior pituitary cells (Table 14). Conditions: for Relative affinity (Binding potency) compared to JI-38: JI-38 = 1; for GHRH receptor binding affinity (in words): compared to JI-38; for Relative affinity (Binding potency) compared to hGHRH(1-29): hGHRH(1-29)NH2 = 1.
Description: Normal human pituitary was purchased from the National Hormone and Peptide Program (UCLA Medical Center, Torrance, Calif.).

Non-standard residues stand in square brackets, D forms with d. Residues, ends and D or L forms follow the SMILES beside them. *: point of attachment. Phe(F5) = N[C@@H](Cc1c(F)c(F)c(F)c(F)c1F)C(=O)O; NMeY = CN[C@@H](Cc1ccc(O)cc1)C(=O)O; Agmatine = N=C(N)NCCCCN*; Nle = CCCC[C@H](N)C(=O)O; Orn = NCCC[C@H](N)C(=O)O; Abu = CC[C@H](N)C(=O)O

On to `CCCC[C@H](NC(=O)[C@@H](NC(=O)[C@H](CC(=O)O)NC(=O)[C@H](CCC(N)=O)NC(=O)[C@H](CC(C)C)NC(=O)[C@H](CC(C)C)NC(=O)[C@H](CCCN)NC(=O)[C@H](CCCNC(=N)N)NC(=O)[C@H](C)NC(=O)[C@H](CO)NC(=O)[C@H](CC(C)C)NC(=O)[C@H](CCC(N)=O)NC(=O)[C@H](CC)NC(=O)[C@H](CC(C)C)NC(=O)[C@@H](NC(=O)[C@H](CCCN)NC(=O)[C@H](CCCNC(=N)N)NC(=O)[C@H](Cc1ccc(O)cc1)NC(=O)[C@H](CO)NC(=O)[C@H](CCC(N)=O)NC(=O)[C@@H](NC(=O)[C@H](Cc1ccccc1)NC(=O)[C@@H](NC(=O)[C@H](C)NC(=O)[C@H](CC(=O)O)NC(=O)[C@@H](C)NC(=O)[C@H](Cc1ccc(O)cc1)NC)[C@@H](C)CC)[C@@H](C)O)C(C)C)[C@@H](C)CC)C(=O)N[C@@H](CC(=O)O)C(=O)N[C@@H](CCCNC(=N)N)C(=O)NC` [Peptide P-27403, [N—Me-Tyr^1, D-Ala^2, Gln^8, Orn^12, Abu^15, Orn^21, Nle^27, Asp^28]hGHRH(1-29)NH—CH3] (H-[NMeY][dA]DAIFTQSYR[Orn]VL[Abu]QLSAR[Orn]LLQDI[Nle]DR-NHMe), for which the “Relative potency, 5 min” value in assay [1] (5 min, JI-38 = 1) turned out to be 1.19. Also, in assay [1] (15 min, JI-38 = 1), the “Relative potency, 15 min” value is 1.35. In addition, the “Serum GH level at selected time after injection (ng/ml), 0 min” value in assay [1] (dose 1 μg/kg, 0 min, mean ± SEM) was determined as 47.7 ± 4.1 ng/mL. Further, in assay [1] (dose 1 μg/kg, 5 min, mean ± SEM), the “Serum GH level at selected time after injection (ng/ml), 5 min” value was 642 ± 29.7 ng/mL. In addition, in assay [1] (dose 1 μg/kg, 15 min, mean ± SEM), the “Serum GH level at selected time after injection (ng/ml), 15 min” value is 268 ± 21.1 ng/mL. In assay [2], the “EF: Ejection Fraction” value is listed as “=”, the “FS: Fraction Shortening” value was “↓”, the “LVEDD: Left Ventricular End Diastolic Diameter” value is recorded as “↑” and the “LVESD: Left Ventricular End Systolic Diameter” value was “↑”. In assay [2], the “VD: Ventricular Diastole” value is “↑” and the “VS: Ventricular Systole” value is “↑”. Further, the “Relative affinity (Binding potency) compared to JI-38” value (“Relative affinity … to JI-38” below) in assay [3] (listed as MR-403) was found to be 3.69. Also, in assay [3], the “GHRH receptor binding affinity (in words)” value was “highest GH-releasing potency and binding affinity”; the “Relative affinity (Binding potency) compared to hGHRH(1-29)” value (“Relative affinity … to hGHRH(1-29)” below) was determined as 10.30.

On to `CCCC[C@H](NC(=O)[C@@H](NC(=O)[C@H](CC(=O)O)NC(=O)[C@H](CCC(N)=O)NC(=O)[C@H](CC(C)C)NC(=O)[C@H](CC(C)C)NC(=O)[C@H](CCCN)NC(=O)[C@H](CCCNC(=N)N)NC(=O)[C@H](C)NC(=O)[C@H](CO)NC(=O)[C@H](CC(C)C)NC(=O)[C@H](CCC(N)=O)NC(=O)[C@H](CC)NC(=O)[C@H](CC(C)C)NC(=O)[C@@H](NC(=O)[C@H](CCCN)NC(=O)[C@H](CCCNC(=N)N)NC(=O)[C@H](Cc1ccc(O)cc1)NC(=O)[C@H](CO)NC(=O)[C@H](CCC(N)=O)NC(=O)[C@@H](NC(=O)[C@H](Cc1ccccc1)NC(=O)[C@@H](NC(=O)[C@H](C)NC(=O)[C@H](CC(=O)O)NC(=O)[C@@H](C)NC(=O)[C@H](Cc1ccc(O)cc1)NC)[C@@H](C)CC)[C@@H](C)O)C(C)C)[C@@H](C)CC)C(=O)N[C@@H](CC(=O)O)C(=O)NCCCCNC(=N)N` [Peptide P-20361, [N—Me-Tyr^1, D-Ala^2, Gln^8, Orn^12, Abu^15, Orn^21, Nle^27, Asp^28, Agm^29] hGHRH (1-29)NH2] (H-[NMeY][dA]DAIFTQSYR[Orn]VL[Abu]QLSAR[Orn]LLQDI[Nle]D-Agmatine), for which, in assay [2], the “EF: Ejection Fraction” value is “↓”, the “FS: Fraction Shortening” value was “=”, the “LVEDD: Left Ventricular End Diastolic Diameter” value is “=” and the “LVESD: Left Ventricular End Systolic Diameter” value was “=”. Further, in assay [2], the “VD: Ventricular Diastole” value is listed as “=” and the “VS: Ventricular Systole” value is listed as “↑”. In assay [3], the “Relative affinity … to JI-38” value is listed as 2.30, the “GHRH receptor binding affinity (in words)” value was “improved receptor binding affinity” and the “Relative affinity … to hGHRH(1-29)” value amounted to 6.42.

As for `CCCC[C@H](NC(=O)[C@@H](NC(=O)[C@H](CC(=O)O)NC(=O)[C@H](CCC(N)=O)NC(=O)[C@H](CC(C)C)NC(=O)[C@H](CC(C)C)NC(=O)[C@H](CCCN)NC(=O)[C@H](CCCNC(=N)N)NC(=O)[C@H](C)NC(=O)[C@H](CO)NC(=O)[C@H](CC(C)C)NC(=O)[C@H](CCC(N)=O)NC(=O)[C@H](CC)NC(=O)[C@H](CC(C)C)NC(=O)[C@@H](NC(=O)[C@H](CCCN)NC(=O)[C@H](CCCNC(=N)N)NC(=O)[C@H](Cc1ccc(O)cc1)NC(=O)[C@H](CO)NC(=O)[C@H](CC(N)=O)NC(=O)[C@@H](NC(=O)[C@H](Cc1ccccc1)NC(=O)[C@@H](NC(=O)[C@H](C)NC(=O)[C@H](CC(=O)O)NC(=O)[C@@H](C)NC(=O)[C@H](Cc1ccc(O)cc1)NC)[C@@H](C)CC)[C@@H](C)O)C(C)C)[C@@H](C)CC)C(=O)N[C@@H](CC(=O)O)C(=O)NCCCCNC(=N)N` [Peptide P-20367, [N—Me-Tyr^1, D-Ala^2, Orn^12, Abu^15, Orn^21, Nle^27, Asp^28, Agm^29]hGHRH(1-29)NH2] (H-[NMeY][dA]DAIFTNSYR[Orn]VL[Abu]QLSAR[Orn]LLQDI[Nle]D-Agmatine), in assay [2], the “EF: Ejection Fraction” value is recorded as “=”, the “FS: Fraction Shortening” value was “=”, the “LVEDD: Left Ventricular End Diastolic Diameter” value is “↑” and the “LVESD: Left Ventricular End Systolic Diameter” value was “↑”. In assay [2], the “VD: Ventricular Diastole” value is listed as “↑” and the “VS: Ventricular Systole” value is “↑”. Moreover, in assay [3], the “Relative affinity … to JI-38” value came out at 2.51, the “GHRH receptor binding affinity (in words)” value was “improved receptor binding affinity” and the “Relative affinity … to hGHRH(1-29)” value was 7.01.

For the molecule `CCCC[C@H](NC(=O)[C@@H](NC(=O)[C@H](CC(=O)O)NC(=O)[C@H](CCC(N)=O)NC(=O)[C@H](CC(C)C)NC(=O)[C@H](CC(C)C)NC(=O)[C@H](CCCN)NC(=O)[C@H](CCCNC(=N)N)NC(=O)[C@H](C)NC(=O)[C@H](CO)NC(=O)[C@H](CC(C)C)NC(=O)[C@H](CCC(N)=O)NC(=O)[C@H](CC)NC(=O)[C@H](CC(C)C)NC(=O)[C@@H](NC(=O)[C@H](CCCN)NC(=O)[C@H](CCCNC(=N)N)NC(=O)[C@H](Cc1ccc(O)cc1)NC(=O)[C@H](CO)NC(=O)[C@H](CCC(N)=O)NC(=O)[C@@H](NC(=O)[C@H](Cc1c(F)c(F)c(F)c(F)c1F)NC(=O)[C@@H](NC(=O)[C@H](C)NC(=O)[C@H](CC(=O)O)NC(=O)[C@@H](C)NC(=O)[C@H](Cc1ccc(O)cc1)NC)[C@@H](C)CC)[C@@H](C)O)C(C)C)[C@@H](C)CC)C(=O)N[C@@H](CC(=O)O)C(=O)N[C@@H](CCCNC(=N)N)C(=O)NC` [Peptide P-27404, [N—Me-Tyr^1, D-Ala^2, Fpa5^6, Orn^12, Abu^15, Orn^21, Nle^27, Asp^28]hGHRH (1-29)NH—CH3] (H-[NMeY][dA]DAI[Phe(F5)]TQSYR[Orn]VL[Abu]QLSAR[Orn]LLQDI[Nle]DR-NHMe), in assay [2], the “EF: Ejection Fraction” value is “=”, the “FS: Fraction Shortening” value was “=”, the “LVEDD: Left Ventricular End Diastolic Diameter” value was “↑” and the “LVESD: Left Ventricular End Systolic Diameter” value is recorded as “=”. Besides, in assay [2], the “VD: Ventricular Diastole” value is “↑” and the “VS: Ventricular Systole” value is reported as “↑”. Also, in assay [3], the “Relative affinity … to JI-38” value was 2.45 and the “Relative affinity … to hGHRH(1-29)” value worked out at 6.83.
